Reference: PubChem BioAssay AID330 (DTP/NCI, 2004)
Several values for one entry are separate records, joined by “and”; a condition that tells them apart may be missing. Identical values can stand only once. Toxic doses and inconclusive results are not listed. The calls were made as follows: active = survival T/C of 150% or more; inactive = T/C below 125% in these data.

Tested on: P388 leukemia ip, CD2F1 mice, survival T/C
Assay: NCI In Vivo Anticancer Drug Screen. Data for tumor model P388 Leukemia (intraperitoneal) in CD2F1 (CDF1) mice
Conditions: endpoint: median survival time, higher = longer survival
In short: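 Mice carrying the transplanted tumor received test compound or vehicle. Survival was recorded in each group, and the value is the treated-group measurement divided by that of the vehicle-treated control group.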

[1] = dose: 60.0 mg/kg/injection, schedule: Q01DX005 (ip), vehicle: saline with Tween-80
[2] = dose: 120.0 mg/kg/injection, schedule: Q01DX005 (ip), vehicle: saline with Tween-80
[3] = dose: 50.0 mg/kg/injection, schedule: Q01DX005 (ip), vehicle: Klucel (hydroxypropylcellulose) (HPC)
[4] = dose: 100.0 mg/kg/injection, schedule: Q01DX005 (ip), vehicle: Klucel (hydroxypropylcellulose) (HPC)
[5] = dose: 200.0 mg/kg/injection, schedule: Q01DX005 (ip), vehicle: Klucel (hydroxypropylcellulose) (HPC)
[6] = dose: 50.0 mg/kg/injection, schedule: Q01DX005 (ip), vehicle: saline with Tween-80
[7] = dose: 100.0 mg/kg/injection, schedule: Q01DX005 (ip), vehicle: saline with Tween-80
[8] = dose: 200.0 mg/kg/injection, schedule: Q01DX005 (ip), vehicle: saline with Tween-80
[9] = dose: 100.0 mg/kg/injection, schedule: Q01DX001 (ip), vehicle: saline with Tween-80
[10] = dose: 25.0 mg/kg/injection, schedule: Q01DX009 (ip), vehicle: saline with Tween-80
[11] = dose: 50.0 mg/kg/injection, schedule: Q01DX009 (ip), vehicle: saline with Tween-80
[12] = dose: 100.0 mg/kg/injection, schedule: Q01DX009 (ip), vehicle: saline with Tween-80
[13] = dose: 200.0 mg/kg/injection, schedule: Q01DX009 (ip), vehicle: saline with Tween-80

Measured: T/C

O=C1C=C(Nc2ccccc2C(=O)O)C(=O)C=C1Nc1ccccc1C(=O)O
inactive: dose: 50.0 mg/kg/injection, schedule: Q01DX009 (ip), vehicle: Klucel (hydroxypropylcellulose) (HPC) 107 % of control | dose: 100.0 mg/kg/injection, schedule: Q01DX009 (ip), vehicle: Klucel (hydroxypropylcellulose) (HPC) 110 % of control | dose: 200.0 mg/kg/injection, schedule: Q01DX009 (ip), vehicle: Klucel (hydroxypropylcellulose) (HPC) 113 % of control

CC1=CC(Cc2ccccc2)N(C)CC1C (stereo not given)
inactive: [1] 97 % of control | [2] 91 % of control

CCc1nc2c(cnn2C)c(=O)n1C
inactive: [3] 89 % of control | [4] 98 % of control | [5] 90 % of control

CC1=CCC(CC2CO2)C1(C)C (stereo not given)
inactive: dose: 50.0 mg/kg/injection, schedule: Q01DX009 (ip), vehicle: saline 101 % of control | dose: 100.0 mg/kg/injection, schedule: Q01DX009 (ip), vehicle: saline 108 % of control

CCCCCCCCCCC(=O)CCCCCC
inactive: dose: 50.0 mg/kg/injection, schedule: Q01DX009 (ip), vehicle: other 90 % of control | dose: 100.0 mg/kg/injection, schedule: Q01DX009 (ip), vehicle: other 100 % of control | dose: 200.0 mg/kg/injection, schedule: Q01DX009 (ip), vehicle: other 109 % of control

O=C1C(=O)c2ccccc2C(O)=C1CC=C(Cl)Cl
inactive: dose: 6.2 mg/kg/injection, schedule: Q01DX009 (ip), vehicle: water 120 % of control | dose: 12.5 mg/kg/injection, schedule: Q01DX009 (ip), vehicle: water 120 % of control | dose: 25.0 mg/kg/injection, schedule: Q01DX009 (ip), vehicle: water 110 % of control | dose: 25.0 mg/kg/injection, schedule: Q01DX009 (oral), vehicle: water 105 % of control | dose: 50.0 mg/kg/injection, schedule: Q01DX009 (ip), vehicle: water 120 % of control | dose: 50.0 mg/kg/injection, schedule: Q01DX009 (oral), vehicle: water 120 % of control | dose: 100.0 mg/kg/injection, schedule: Q01DX009 (oral), vehicle: water 120 % of control

CC(=O)OC12CC3CCC4C(CCC5(C)C(C(C)CCCC(C)C)CCC45)C3(C)CC1C(Cl)C2=O (stereo not given)
inactive: [6] 99 % of control | [7] 96 % of control | [8] 96 % of control

COc1ccc(CN2CCc3cc(OC)c(O)cc3C2)cc1O
inactive: [9] 94 % of control | dose: 200.0 mg/kg/injection, schedule: Q01DX001 (ip), vehicle: saline with Tween-80 98 % of control

C/C(=N/N=C(N)N)c1cnc(N/N=C(\C)c2cnc(NN)nc2C)nc1C
inactive: dose: 7.5 mg/kg/injection, schedule: Q01DX005 (ip), vehicle: saline 103 % of control | dose: 15.0 mg/kg/injection, schedule: Q01DX005 (ip), vehicle: saline 94 % of control | dose: 30.0 mg/kg/injection, schedule: Q01DX005 (ip), vehicle: saline 97 % of control

CN(C)P1P(N(C)C)P(N(C)C)P1N(C)C (stereo not given)
inactive: [1] 97 % of control | [2] 97 % of control | dose: 240.0 mg/kg/injection, schedule: Q01DX005 (ip), vehicle: saline with Tween-80 95 % of control

C[C@H](N)C(O)/C=C/c1ccccc1 (stereo not given in full)
inactive: dose: 10.0 mg/kg/injection, schedule: Q01DX005 (ip), vehicle: saline 103 % of control | dose: 20.0 mg/kg/injection, schedule: Q01DX005 (ip), vehicle: saline 93 % of control | dose: 40.0 mg/kg/injection, schedule: Q01DX005 (ip), vehicle: saline 97 % of control

Oc1c(Cl)cc(Cl)cc1C=NCCN(CCN=Cc1cc(Cl)cc(Cl)c1O)CCN=Cc1cc(Cl)cc(Cl)c1O
inactive: [3] 98 % of control | [4] 92 % of control | [5] 101 % of control

CC(C)N(c1cc(=O)nc2ccccn12)C(C)C
inactive: dose: 60.0 mg/kg/injection, schedule: Q01DX005 (ip), vehicle: saline 101 % of control | dose: 120.0 mg/kg/injection, schedule: Q01DX005 (ip), vehicle: saline 98 % of control | dose: 240.0 mg/kg/injection, schedule: Q01DX005 (ip), vehicle: saline 100 % of control

O=[N+]([O-])c1ccc(-c2nc(CN3CCOCC3)cs2)s1
inactive: [10] 98 % of control | [11] 103 % of control | [12] 106 % of control

OC1OCC(Cc2ccc3c(c2)OCO3)C1Cc1ccc2c(c1)OCO2 (stereo not given)
inactive: dose: 100.0 mg/kg/injection, schedule: Q04DX003 (ip), vehicle: other 95 % of control | dose: 200.0 mg/kg/injection, schedule: Q04DX003 (ip), vehicle: other 90 % of control | dose: 400.0 mg/kg/injection, schedule: Q04DX003 (ip), vehicle: other 90 % of control

COC1C(Cl)CC(/C(=C\C2CCCCC2)C(=O)O)CC1Cl (stereo not given)
inactive: [6] 100 % of control | [7] 103 % of control | [8] 101 % of control

CC1(C)COC(=O)/C1=C1\SC(=O)NC1=O
inactive: dose: 100.0 mg/kg/injection, schedule: Q04DX003 (ip), vehicle: saline 95 % of control | dose: 200.0 mg/kg/injection, schedule: Q04DX003 (ip), vehicle: saline 94 % of control | dose: 400.0 mg/kg/injection, schedule: Q04DX003 (ip), vehicle: saline 102 % of control

NC(C(=O)O)C(=O)O
inactive: [6] 101 % of control | [7] 100 % of control | [8] 89 % of control

Cc1cc(N=C2C=CC(=[N+](C)C)C=C2)c(N)cc1N
inactive: [10] 107 % of control | [11] 107 % of control

Nc1c(C(=O)Nc2ccc3c(c2)C(=O)c2ccccc2C3=O)ccc2c1C(=O)c1ccccc1C2=O
inactive: [3] 107 % of control | [4] 90 % of control | [5] 100 % of control

CC(=O)OC[C@@]1(C)[C@@H]2CC[C@]3(C)[C@H](C(=O)C=C4[C@@H]5CC(C)(C)CC[C@]5(C(=O)O)CC[C@]43C)[C@@]2(C)CC[C@@H]1OC(C)=O
inactive: dose: 25.0 mg/kg/injection, schedule: Q01DX005 (ip), vehicle: saline with Tween-80 108 % of control | [6] 87 % of control and 95 % of control | [7] 93 % of control

CCCCCCCCCCCC[N+]1([O-])CCCCC1
inactive: dose: 12.5 mg/kg/injection, schedule: Q01DX009 (ip), vehicle: saline 89 % of control | dose: 25.0 mg/kg/injection, schedule: Q01DX009 (ip), vehicle: saline 91 % of control

CN(C)c1cc(N(C)C)c(N(C)C)cc1N(C)C
inactive: [6] 109 % of control | [7] 102 % of control | [8] 100 % of control

O=[n+]1cc2ccccn2cc1-c1ccccc1
inactive: [12] 90 % of control | [13] 95 % of control | dose: 400.0 mg/kg/injection, schedule: Q01DX009 (ip), vehicle: saline with Tween-80 118 % of control

CN(C)CCCNC(=O)c1ccc2c(c1O)C(=O)c1ccccc1C2=O
inactive: dose: 12.5 mg/kg/injection, schedule: Q01DX005 (ip), vehicle: saline 105 % of control | dose: 25.0 mg/kg/injection, schedule: Q01DX005 (ip), vehicle: saline 109 % of control | dose: 50.0 mg/kg/injection, schedule: Q01DX005 (ip), vehicle: saline 114 % of control

CC1CN2CC(C)O[Si](CCCCCC[Si]34OC(C)CN(CC(C)O3)CC(C)O4)(O1)OC(C)C2 (stereo not given)
inactive: [3] 108 % of control | [4] 97 % of control | [5] 97 % of control

O=S(=O)(O)Oc1c(S(=O)(=O)O)c(S(=O)(=O)O)c(O)c(S(=O)(=O)O)c1S(=O)(=O)O
inactive: dose: 25.0 mg/kg/injection, schedule: Q01DX001 (ip), vehicle: saline 111 % of control | dose: 50.0 mg/kg/injection, schedule: Q01DX001 (ip), vehicle: saline 113 % of control | [9] 103 % of control | dose: 100.0 mg/kg/injection, schedule: Q01DX001 (ip), vehicle: saline 94 % of control

CC(C)(C)C1CCC(=O)C2(CCCC2)C1 (stereo not given)
inactive: [11] 100 % of control | [12] 114 % of control | [13] 122 % of control

O=C(NCCCl)Nc1ccnc(=O)[nH]1
inactive: [6] 107 % of control | [7] 107 % of control | [8] 111 % of control

COc1cccc2c1ccc1nonc12
inactive: [6] 95 % of control | [7] 88 % of control | [8] 86 % of control
